Results reported in US11813326B2, “Cell-associating immunologic adjuvants for treatment enhancement” (ACADEMIA SINICA, priority 2018, dated 2023).
Each block holds one compound with its values, some of them ahead of it.

Columns and labels:
[1] = system: B16-OVA tumors; test: Adjuvant retention in tumors and cancer cells after intratumoral injection; type: in vivo, B6 mice; settings: intra-tumoral, 24 hours
Protocol: To validate cell-associating effect of the nanoparticle adjuvant formulation, B6 mice were inoculated subcutaneously with B16-OVA tumors. Nanoparticle-mediated adjuvant retention with the B16 cells was validated using whole body imaging, flow cytometric analysis, and fluorescence microscopy. Dye-labelled STING agonist (2′-[DY-547]-AHC-c-diGMP) was administered in its free form and nanoparticle form intra-tumorally and examined after 24 hours.

[2] = system: B16-OVA tumors; test: Tumor treatment efficacy of adjuvant plus cisplatin, B16-OVA subcutaneous model; type: in vivo, B6 mice; settings: intra-tumoral treatment
Protocol: To study the in vivo efficiency of the treatment modality, B6 mice were inoculated subcutaneously with B16-OVA tumors. When the tumors appeared palpable, they were pre-treated with free cGAMP or cGAMP-loaded nanoparticles prior to chemotherapy by cisplatin (CTTP). 24 hours following intra-tumoral adjuvant administration, the mice were given an intra-tumoral cisplatin injection to induce cell death (FIG. 9(a)). These two groups are designated cGAMP+CTTP and NP+CTTP to differentiate the use of free cGAMP and cGAMP-loaded nanoparticles, respectively. For controls, tumor-bearing mice receiving no treatment (placebo), cistplatin only (CTTP only) and cGAMP-loaded nanoparticles only (NP only) were also prepared. For cGAMP administration, 2.5 μg of the adjuvant was administered in 50 μL of solution. For cisplatin administration, 235 μg of the chemodrug was administered in 100 μL of solution. Following the different treatments, the tumor volumes were monitored over time. […] In contrast, no other group had any tumor with complete regression (FIG. 9(b), (c)). […] With the tumor-free surviving mice from the NP+CTTP group, 4 of them were re-challenged with B16-OVA cells on day 60 and compared to animals that had no prior tumor challenge and treatment.

[3] = In vivo immune potentiation after footpad injection (lymph node IFN-β, serum TNF-α); settings: after footpad administration, mice
Protocol: Immune potentiation by the cd-GMP nanoparticles was further compared to free cd-GMP in vivo in mice. 48 hours following footpad injections, the draining popliteal lymph nodes were collected for IFN-β quantification. […] In addition, the systemic level of TNF-α, an indicator of reactogenicity, was also monitored following the footpad administration of free cd-GMP and cd-GMP nanoparticles.

[4] = Encapsulation efficiency of thin-shell polymeric nanoparticles; type: physicochemical; settings: for encapsulation efficiency: cargo in thin-shell hollow PLGA nanoparticles
[5] = system: HeLa cells; test: Association of cGAMP adjuvant with HeLa cells and cisplatin-induced debris (confocal, FACS); type: cell-based

adjuvant association within the cancer cells ([1]; flow cytometry and confocal microscopy of extracted cells): little adjuvant retention | adjuvant retention inside the tumor ([1]; whole body imaging): little adjuvant retention
Compound: 2′-[DY-547]-AHC-c-diGMP [free adjuvant]

Compound: N.N.[Cl][Pt][Cl] [CTTP only, cisplatin]
tumor regression [2]: neither CTTP only nor NP only treatment induced tumor regression

serum level of TNF-α (indicator of reactogenicity) [3]: elevated level | encapsulation efficiency [4]: 37% | encapsulation efficiency ([4]; listed as cd-GMP): about 40% | cargo molecules per nanoparticle ([4]; loading concentration 8 mM DNA, 50 mg/mL BSA, cd-GMP at about 40% efficiency): approximately 2,000
Compound: Nc1nc2c(ncn2[C@@H]2O[C@@H]3COP(=O)(O)O[C@H]4[C@@H](O)[C@H](n5cnc6c(=O)[nH]c(N)nc65)O[C@@H]4COP(=O)(O)O[C@H]3[C@H]2O)c(=O)[nH]1 [cyclic di-GMP]

Compound: dye-labelled BSA: dye-labelled bovine serum albumin cargo
encapsulation efficiency [4]: 35%

Compound: Nc1nc2c(ncn2[C@@H]2O[C@@H]3COP(=O)(O)O[C@H]4[C@@H](O)[C@H](n5cnc6c(N)ncnc65)O[C@@H]4COP(=O)(O)O[C@@H]2[C@@H]3O)c(=O)[nH]1 [free cGAMP, 2′3′-cGAMP]
capacity to associate with the cells [5]: little capacity
